The source of these data is PubChem BioAssay AID328 (DTP/NCI, 2004).

This assay relates to BDF1 mice, P388 leukemia ip, median survival T/C. The assay is described as follows: NCI In Vivo Anticancer Drug Screen. Data for tumor model P388 Leukemia (intraperitoneal) in B6D2F1 (BDF1) mice. To be noted: endpoint: median survival time, higher = longer survival. A digest of the protocol: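 Mice carrying the transplantable tumour receive compound or vehicle. Survival is followed in each arm, and the treated measure is divided by the vehicle measure.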

Setting [1] is: dose: 50.0 mg/kg/injection, schedule: Q01DX009 (ip), vehicle: Klucel (hydroxypropylcellulose) (HPC).
[2] abbreviates: dose: 100.0 mg/kg/injection, schedule: Q01DX009 (ip), vehicle: Klucel (hydroxypropylcellulose) (HPC).
[3] abbreviates: dose: 200.0 mg/kg/injection, schedule: Q01DX009 (ip), vehicle: Klucel (hydroxypropylcellulose) (HPC).
The mark [4] stands for this setting: dose: 100.0 mg/kg/injection, schedule: Q04DX003 (ip), vehicle: saline with Tween-80.

Where “and” joins values, the source holds several entries; their conditions need not be identical. Identical values can stand only once. Inconclusive results and toxic doses are left out.

As for `CN=C1N[N+]2=C(C)CCCC2S1` (stereo not given), the T/C (dose: 25.0 mg/kg/injection, schedule: Q01DX009 (ip), vehicle: saline) was 97 % of control; the T/C (dose: 50.0 mg/kg/injection, schedule: Q01DX009 (ip), vehicle: saline) was 91 % of control; the T/C (dose: 100.0 mg/kg/injection, schedule: Q01DX009 (ip), vehicle: saline) was 99 % of control.

For `CC[CH2][Sn]([CH2]CC)([CH2]CC)[O][Sn]([CH2]CC)([CH2]CC)[CH2]CC`, the T/C was 90 % of control (dose: 0.25 mg/kg/injection, schedule: Q01DX009 (ip), vehicle: saline with Tween-80); 100 % of control (dose: 0.25 mg/kg/injection, schedule: Q04DX003 (ip), vehicle: saline with Tween-80); 95 % of control (dose: 0.5 mg/kg/injection, schedule: Q01DX009 (ip), vehicle: saline with Tween-80); 104 % of control (dose: 0.5 mg/kg/injection, schedule: Q04DX003 (ip), vehicle: saline with Tween-80); 100 % of control (dose: 1.0 mg/kg/injection, schedule: Q01DX009 (ip), vehicle: saline with Tween-80); 100 % of control (dose: 1.0 mg/kg/injection, schedule: Q04DX003 (ip), vehicle: saline with Tween-80).

As to `O=C1c2cccc(O)c2C(=O)c2c(O)cccc21`, the T/C by setting is: (dose: 100.0 mg/kg/injection, schedule: Q04DX003 (ip), vehicle: saline) 100 % of control and 109 % of control; (dose: 200.0 mg/kg/injection, schedule: Q04DX003 (ip), vehicle: saline) 109 % of control; (dose: 400.0 mg/kg/injection, schedule: Q04DX003 (ip), vehicle: saline) 95 % of control and 118 % of control.

Turning to `Cc1ccc(N=Nc2nc3nc(N)[nH]c(=O)c3[nH]2)cc1`, the T/C runs as follows: (dose: 50.0 mg/kg/injection, schedule: Q01DX005 (ip), vehicle: saline with Tween-80) 100 % of control; (dose: 100.0 mg/kg/injection, schedule: Q01DX005 (ip), vehicle: saline with Tween-80) 105 % of control; (dose: 200.0 mg/kg/injection, schedule: Q01DX005 (ip), vehicle: saline with Tween-80) 87 % of control.

Take `C[C@]1(O)CC[C@H]2[C@@H]3CCC4=CC(=O)CCC4=C3C=C[C@@]21C`: the T/C reads like this: (dose: 12.5 mg/kg/injection, schedule: Q01DX009 (ip), vehicle: Klucel (hydroxypropylcellulose) (HPC)) 87 % of control; (dose: 25.0 mg/kg/injection, schedule: Q01DX009 (ip), vehicle: Klucel (hydroxypropylcellulose) (HPC)) 91 % of control; under setting [1], 91 % of control; under setting [2], 104 % of control; (dose: 100.0 mg/kg/injection, schedule: Q04DX003 (ip), vehicle: Klucel (hydroxypropylcellulose) (HPC)) 104 % of control; under setting [3], 109 % of control. In addition, under “dose: 200.0 mg/kg/injection, schedule: Q04DX003 (ip), vehicle: Klucel (hydroxypropylcellulose) (HPC)”, the T/C was 104 % of control.

In the case of `O=C(NNC1CCCCC1)c1ccccc1`, the T/C (dose: 25.0 mg/kg/injection, schedule: Q01DX009 (ip), vehicle: saline with Tween-80) was 95 % of control.

With `CCC(=O)O[C@H]1CC[C@H]2[C@@H]3[C@@H](C)CC4=CC(=O)CC[C@]4(C)[C@H]3CC[C@]12C`, the T/C is 105 % of control (dose: 100.0 mg/kg/injection, schedule: Q01DX009 (ip), vehicle: saline with Tween-80); 95 % of control (dose: 200.0 mg/kg/injection, schedule: Q01DX009 (ip), vehicle: saline with Tween-80); 95 % of control (dose: 400.0 mg/kg/injection, schedule: Q01DX009 (ip), vehicle: saline with Tween-80).

Turning to `O=C(Nc1cccc(Cl)c1Cl)SCCSC(=O)Nc1cccc(Cl)c1Cl`, the T/C (dose: 12.5 mg/kg/injection, schedule: Q01DX009 (ip), vehicle: gum acacia) is 118 % of control; the T/C (dose: 25.0 mg/kg/injection, schedule: Q01DX009 (ip), vehicle: gum acacia) was 100 % of control; the T/C (dose: 50.0 mg/kg/injection, schedule: Q01DX009 (ip), vehicle: gum acacia) is 118 % of control.

For the compound `Cc1cc2c(cc1C)C(=O)C(N1CCN(C)CC1)CCC2` (stereo not given), the T/C is 100 % of control (dose: 25.0 mg/kg/injection, schedule: Q04DX003 (ip), vehicle: saline with Tween-80); 104 % of control (dose: 50.0 mg/kg/injection, schedule: Q04DX003 (ip), vehicle: saline with Tween-80); 86 % of control under setting [4].

For the compound `CN(C)[C@@H]1C(=O)C(C(=O)NCN2CCN(C(=N)N=C(N)N)CC2)=C(O)[C@@]2(O)C(=O)C3=C(O)c4c(O)cccc4[C@@](C)(O)[C@H]3C[C@@H]12`, the T/C reads like this: (dose: 0.1 mg/kg/injection, schedule: Q04DX003 (ip), vehicle: saline) 124 % of control; (dose: 1.0 mg/kg/injection, schedule: Q04DX003 (ip), vehicle: saline) 120 % of control; (dose: 5.0 mg/kg/injection, schedule: Q04DX003 (ip), vehicle: saline) 155 % of control.

With `COc1cc(OC)cc(OC)c1`, the T/C (dose: 40.0 mg/kg/injection, schedule: Q01DX009 (ip), vehicle: Klucel (hydroxypropylcellulose) (HPC)) was 108 % of control; the T/C (dose: 80.0 mg/kg/injection, schedule: Q01DX009 (ip), vehicle: Klucel (hydroxypropylcellulose) (HPC)) was 100 % of control; the T/C (dose: 160.0 mg/kg/injection, schedule: Q01DX009 (ip), vehicle: Klucel (hydroxypropylcellulose) (HPC)) was 106 % of control.

For `COc1ccc(/C=C/c2ccc3ccccc3n2)c(OC)c1`, the T/C is 88 % of control under setting [4] and 100 % of control (dose: 200.0 mg/kg/injection, schedule: Q04DX003 (ip), vehicle: saline with Tween-80).

With `O=C1CC(=Nc2ccccc2)N(c2ccccc2)N1`, the T/C (dose: 33.75 mg/kg/injection, schedule: Q01DX009 (ip), vehicle: saline with Tween-80) is 109 % of control; the T/C (dose: 67.5 mg/kg/injection, schedule: Q01DX009 (ip), vehicle: saline with Tween-80) is 91 % of control; the T/C (dose: 135.0 mg/kg/injection, schedule: Q01DX009 (ip), vehicle: saline with Tween-80) is 89 % of control.

For the compound `C1CC[N-]CC1.C1CC[N-]CC1.[I][Pt+2][I]`, the T/C runs as follows: under setting [1], 93 % of control; under setting [2], 93 % of control.

With `CNC(=O)NC1C(O)C(CO)OC(OC)C1O` (stereo not given), the T/C reads like this: (dose: 100.0 mg/kg/injection, schedule: Q01DX001 (ip), vehicle: saline) 118 % of control; (dose: 200.0 mg/kg/injection, schedule: Q01DX001 (ip), vehicle: saline) 100 % of control; (dose: 400.0 mg/kg/injection, schedule: Q01DX001 (ip), vehicle: saline) 104 % of control.

`O=C1C=CC(=O)c2c(O)c(CO)c(CO)c(O)c21`: the T/C reads like this: (dose: 0.19 mg/kg/injection, schedule: Q01DX009 (ip), vehicle: water) 100 % of control; (dose: 0.39 mg/kg/injection, schedule: Q01DX009 (ip), vehicle: water) 108 % of control; (dose: 0.78 mg/kg/injection, schedule: Q01DX009 (ip), vehicle: water) 115 % of control; (dose: 1.56 mg/kg/injection, schedule: Q01DX009 (ip), vehicle: water) 102 % of control; (dose: 3.12 mg/kg/injection, schedule: Q01DX009 (ip), vehicle: water) 108 % of control.

Regarding `COc1cc2c(c(OC)c1OC)CCC1(C)C(=O)NN=C21` (stereo not given), the T/C is, setting by setting: under setting [2], 108 % of control; under setting [3], 106 % of control.

In the case of `N#CC(C#N)=C(C#N)C#N`, the T/C reads like this: (dose: 0.78 mg/kg/injection, schedule: Q01DX009 (ip), vehicle: Klucel (hydroxypropylcellulose) (HPC)) 90 % of control; (dose: 1.56 mg/kg/injection, schedule: Q01DX009 (ip), vehicle: Klucel (hydroxypropylcellulose) (HPC)) 100 % of control; (dose: 1.56 mg/kg/injection, schedule: Q04DX003 (ip), vehicle: Klucel (hydroxypropylcellulose) (HPC)) 100 % of control; (dose: 3.13 mg/kg/injection, schedule: Q01DX009 (ip), vehicle: Klucel (hydroxypropylcellulose) (HPC)) 100 % of control; (dose: 3.13 mg/kg/injection, schedule: Q04DX003 (ip), vehicle: Klucel (hydroxypropylcellulose) (HPC)) 100 % of control.

Take `O=C(O)c1ccc(C(Cl)(Cl)Cl)cc1`: the T/C (dose: 18.75 mg/kg/injection, schedule: Q01DX009 (ip), vehicle: Klucel (hydroxypropylcellulose) (HPC)) is 95 % of control; the T/C (dose: 33.0 mg/kg/injection, schedule: Q01DX009 (ip), vehicle: saline with Tween-80) is 116 % of control; the T/C (dose: 50.0 mg/kg/injection, schedule: Q01DX009 (ip), vehicle: saline with Tween-80) is 112 % of control; the T/C (dose: 75.0 mg/kg/injection, schedule: Q01DX009 (ip), vehicle: saline with Tween-80) was 108 % of control; the T/C (dose: 150.0 mg/kg/injection, schedule: Q01DX009 (ip), vehicle: saline with Tween-80) was 123 % of control.
